In PubChem BioAssay AID328 (DTP/NCI, 2004):
Several values for one entry are separate records, joined by “and”; a condition that tells them apart may be missing. Equal entries are not always repeated. Toxic doses and inconclusive results are not listed.

Test system: BDF1 mice, P388 leukemia ip, median survival T/C
Assay: NCI In Vivo Anticancer Drug Screen. Data for tumor model P388 Leukemia (intraperitoneal) in B6D2F1 (BDF1) mice
Settings: endpoint: median survival time, higher = longer survival
Outline: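 Antitumour effect was judged in vivo: survival in drug-treated mice, normalised to that of vehicle-dosed controls, gives the reported T/C.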

[1] = dose: 10.0 mg/kg/injection, schedule: Q01DX009 (ip), vehicle: saline
[2] = dose: 12.5 mg/kg/injection, schedule: Q04DX003 (ip), vehicle: saline sonified
[3] = dose: 50.0 mg/kg/injection, schedule: Q04DX003 (ip), vehicle: Klucel (hydroxypropylcellulose) (HPC)
[4] = dose: 100.0 mg/kg/injection, schedule: Q04DX003 (ip), vehicle: Klucel (hydroxypropylcellulose) (HPC)
[5] = dose: 100.0 mg/kg/injection, schedule: Q01DX009 (ip), vehicle: saline
[6] = dose: 200.0 mg/kg/injection, schedule: Q01DX009 (ip), vehicle: saline
[7] = dose: 50.0 mg/kg/injection, schedule: Q01DX009 (ip), vehicle: saline with Tween-80
[8] = dose: 100.0 mg/kg/injection, schedule: Q01DX009 (ip), vehicle: saline with Tween-80
[9] = dose: 200.0 mg/kg/injection, schedule: Q01DX009 (ip), vehicle: saline with Tween-80
[10] = dose: 200.0 mg/kg/injection, schedule: Q04DX003 (ip), vehicle: Klucel (hydroxypropylcellulose) (HPC)
[11] = dose: 400.0 mg/kg/injection, schedule: Q04DX003 (ip), vehicle: Klucel (hydroxypropylcellulose) (HPC)

For CC(C)([NH-])CO.CC(C)([NH-])CO.[Cl][Cd][Cl], the T/C (dose: 5.0 mg/kg/injection, schedule: Q01DX009 (ip), vehicle: saline) was 120 % of control, the T/C (dose: 6.25 mg/kg/injection, schedule: Q04DX003 (ip), vehicle: saline sonified) was 104 % of control and the T/C [1] was 120 % of control. For the same compound, the T/C (dose: 10.0 mg/kg/injection, schedule: Q04DX003 (ip), vehicle: saline) was 109 % of control, the T/C [2] was 108 % of control and the T/C (dose: 20.0 mg/kg/injection, schedule: Q04DX003 (ip), vehicle: saline) was 95 % of control.
For CCN(Cc1ccc(Cl)c(Cl)c1)c1ccc2nc(N)nc(N)c2c1C, the T/C (dose: 1.56 mg/kg/injection, schedule: Q01DX009 (ip), vehicle: water) was 105 % of control, the T/C (dose: 6.25 mg/kg/injection, schedule: Q01DX009 (ip), vehicle: water) was 151 % of control and the T/C (dose: 12.5 mg/kg/injection, schedule: Q01DX009 (ip), vehicle: water) was 98 % of control. For the same compound, the T/C (dose: 12.5 mg/kg/injection, schedule: Q04DX003 (ip), vehicle: Klucel (hydroxypropylcellulose) (HPC)) was 107 % of control, the T/C (dose: 12.5 mg/kg/injection, schedule: Q04DX003 (ip), vehicle: water) was 103 % of control and 118 % of control and the T/C (dose: 25.0 mg/kg/injection, schedule: Q01DX009 (ip), vehicle: water) was 89 % of control. For the same compound, the T/C (dose: 25.0 mg/kg/injection, schedule: Q04DX003 (ip), vehicle: Klucel (hydroxypropylcellulose) (HPC)) was 109 % of control, the T/C [3] was 115 % of control and the T/C (dose: 50.0 mg/kg/injection, schedule: Q04DX003 (ip), vehicle: water) was 159 % of control and 189 % of control. The T/C [4] was 88 % of control and the T/C (dose: 100.0 mg/kg/injection, schedule: Q04DX003 (ip), vehicle: water) was 109 % of control.
With CCB(CC)OCC1OB(CC)OC1C1OB(CC)OC1COB(CC)CC (stereo not drawn) the T/C (dose: 50.0 mg/kg/injection, schedule: Q01DX009 (ip), vehicle: saline) was 99 % of control, the T/C [5] was 97 % of control and the T/C [6] was 99 % of control.
O=C(Nc1ccccc1F)C12CC3CC(CC(C3)C1)C2 was tested, and the T/C [7] was 92 % of control, the T/C [8] was 96 % of control and the T/C [9] was 96 % of control.
In the case of COc1ccc(-c2oc3cc(O)c(OC)c(O)c3c(=O)c2OC)cc1O, the T/C (dose: 10.0 mg/kg/injection, schedule: Q01DX010 (ip), vehicle: saline) is reported as 100 % of control, the T/C (dose: 20.0 mg/kg/injection, schedule: Q01DX010 (ip), vehicle: saline) is reported as 100 % of control and the T/C (dose: 40.0 mg/kg/injection, schedule: Q01DX010 (ip), vehicle: saline) is reported as 113 % of control.
With O=C(O)C(O)C(O)C(O)C(O)CO.[Mn] (stereo not drawn) the T/C (dose: 66.0 mg/kg/injection, schedule: Q01DX009 (ip), vehicle: saline) was 116 % of control and the T/C [5] was 116 % of control.
In the case of O=C(O)C1OC1C(=O)O (stereo not drawn), the T/C (dose: 75.0 mg/kg/injection, schedule: Q01DX009 (ip), vehicle: saline) is reported as 90 % of control, the T/C (dose: 150.0 mg/kg/injection, schedule: Q01DX009 (ip), vehicle: saline) is reported as 100 % of control and the T/C (dose: 300.0 mg/kg/injection, schedule: Q01DX009 (ip), vehicle: saline) is reported as 100 % of control.
With NN(c1ccccc1)c1ccc2ccccc2c1 the T/C [3] was 95 % of control, the T/C [4] was 104 % of control and the T/C [10] was 109 % of control.
C[NH-].C[NH-].[Br][Pt+2][Br] was tested, and the T/C (dose: 6.0 mg/kg/injection, schedule: Q04DX003 (ip), vehicle: other) was 170 % of control, the T/C (dose: 12.0 mg/kg/injection, schedule: Q04DX003 (ip), vehicle: other) was 208 % of control and the T/C (dose: 12.5 mg/kg/injection, schedule: Q04DX003 (ip), vehicle: other) was 212 % of control.
In the case of O=[N+]([O-])C1(Cl)CCCCC1, the T/C (dose: 6.25 mg/kg/injection, schedule: Q01DX009 (ip), vehicle: Klucel (hydroxypropylcellulose) (HPC)) is reported as 112 % of control, the T/C (dose: 12.5 mg/kg/injection, schedule: Q01DX009 (ip), vehicle: Klucel (hydroxypropylcellulose) (HPC)) is reported as 108 % of control and the T/C (dose: 25.0 mg/kg/injection, schedule: Q01DX009 (ip), vehicle: Klucel (hydroxypropylcellulose) (HPC)) is reported as 102 % of control and 105 % of control.
In the case of CCOC(=O)C(Cc1ccc(N(CCCl)CCCl)cc1)NC(=O)C(CC(C)C)NC(C)=O (stereo not drawn), the T/C (dose: 5.0 mg/kg/injection, schedule: Q04DX003 (ip), vehicle: water) is reported as 114 % of control, the T/C (dose: 10.0 mg/kg/injection, schedule: Q04DX003 (ip), vehicle: water) is reported as 114 % of control and the T/C (dose: 40.0 mg/kg/injection, schedule: Q04DX003 (ip), vehicle: water) is reported as 121 % of control.
In the case of c1cc(OCC2CO2)ccc1OCC1CO1 (stereo not drawn), the T/C (dose: 78.0 mg/kg/injection, schedule: Q04DX003 (ip), vehicle: saline with Tween-80) is reported as 119 % of control, the T/C (dose: 177.0 mg/kg/injection, schedule: Q04DX003 (ip), vehicle: saline with Tween-80) is reported as 153 % of control and the T/C (dose: 600.0 mg/kg/injection, schedule: Q04DX003 (ip), vehicle: saline with Tween-80) is reported as 122 % of control.
In the case of COC1C(OC(=O)c2ccc(C)[nH]2)C(O)C(Oc2ccc3c(O)c(NC(=O)c4ccc(O)c(CC=C(C)C)c4)c(=O)oc3c2Cl)OC1(C)C (stereo not drawn), the T/C (dose: 50.0 mg/kg/injection, schedule: Q01DX009 (ip), vehicle: other) is reported as 106 % of control, the T/C (dose: 100.0 mg/kg/injection, schedule: Q01DX009 (ip), vehicle: other) is reported as 104 % of control and the T/C (dose: 200.0 mg/kg/injection, schedule: Q01DX009 (ip), vehicle: other) is reported as 115 % of control.
CC(=O)OC1(C)CC(C)C(O)C(C(O)CC2CC(=O)NC(=O)C2)C1 (stereo not drawn) was tested, and the T/C (dose: 0.5 mg/kg/injection, schedule: Q01DX010 (ip), vehicle: water) was 120 % of control, the T/C (dose: 2.0 mg/kg/injection, schedule: Q01DX010 (ip), vehicle: water) was 150 % of control and 160 % of control and the T/C (dose: 3.0 mg/kg/injection, schedule: Q01DX010 (ip), vehicle: water) was 190 % of control. The T/C (dose: 4.0 mg/kg/injection, schedule: Q01DX010 (ip), vehicle: water) was 90 % of control and 110 % of control.
CC1OC(O[C@H]2/C=C/C=C/C=C/C=C/C=C/C=C/C=C/[C@H](C)[C@@H](O)[C@@H](C)[C@H](C)OC(=O)C[C@H](O)C[C@H](O)CC[C@@H](O)[C@H](O)C[C@H](O)C[C@]3(O)C[C@H](O)[C@@H](C(=O)O)[C@H](C2)O3)C(O)C(N)C1O (stereo partly drawn) was tested, and the T/C (dose: 20.0 mg/kg/injection, schedule: Q04DX003 (ip), vehicle: clinical formulation) was 109 % of control and the T/C (dose: 40.0 mg/kg/injection, schedule: Q04DX003 (ip), vehicle: clinical formulation) was 97 % of control.
O=CC1CO1 (stereo not drawn) was tested, and the T/C (dose: 33.0 mg/kg/injection, schedule: Q01DX009 (ip), vehicle: saline sonified) was 150 % of control and the T/C (dose: 33.0 mg/kg/injection, schedule: Q01DX009 (ip), vehicle: saline) was 116 % of control.
In the case of CCCCCCCC(O)CCC (stereo not drawn), the T/C [4] is reported as 108 % of control, the T/C [10] is reported as 100 % of control and the T/C [11] is reported as 87 % of control.
For C[N+]1=C2CCCCCC2=C(N)CC1, the T/C (dose: 6.25 mg/kg/injection, schedule: Q01DX009 (ip), vehicle: saline) was 100 % of control, the T/C (dose: 12.5 mg/kg/injection, schedule: Q01DX009 (ip), vehicle: saline) was 100 % of control and the T/C [2] was 91 % of control. For the same compound, the T/C (dose: 25.0 mg/kg/injection, schedule: Q01DX009 (ip), vehicle: saline) was 100 % of control.
In the case of C(=C\c1nc2ncccn2n1)/c1ccccc1, the T/C [7] is reported as 101 % of control, the T/C [8] is reported as 87 % of control and the T/C [9] is reported as 100 % of control.
With NC(=O)C(CC(=O)OCc1ccccc1)NC(=O)OCc1ccccc1 (stereo not drawn) the T/C (dose: 100.0 mg/kg/injection, schedule: Q04DX003 (ip), vehicle: saline with Tween-80) was 100 % of control, the T/C (dose: 200.0 mg/kg/injection, schedule: Q04DX003 (ip), vehicle: saline with Tween-80) was 95 % of control and the T/C (dose: 400.0 mg/kg/injection, schedule: Q04DX003 (ip), vehicle: saline with Tween-80) was 104 % of control.
Cn1c(=O)c2nc(-c3ccc(Cl)cc3)c(-c3ccc(Cl)cc3)nc2n(C)c1=O was tested, and the T/C (dose: 100.0 mg/kg/injection, schedule: Q01DX001 (ip), vehicle: saline with Tween-80) was 110 % of control and the T/C (dose: 200.0 mg/kg/injection, schedule: Q01DX001 (ip), vehicle: saline with Tween-80) was 112 % of control.
O=C(O)C1(NO)CCCC1 was tested, and the T/C [5] was 95 % of control and the T/C [6] was 104 % of control.
With O=C(/C=C/c1ccc2c(c1)OCO2)c1ccccc1 the T/C (dose: 50.0 mg/kg/injection, schedule: Q01DX009 (ip), vehicle: Klucel (hydroxypropylcellulose) (HPC)) was 114 % of control and 105 % of control, the T/C (dose: 100.0 mg/kg/injection, schedule: Q01DX009 (ip), vehicle: Klucel (hydroxypropylcellulose) (HPC)) was 112 % of control and 100 % of control and the T/C [4] was 104 % of control. For the same compound, the T/C (dose: 200.0 mg/kg/injection, schedule: Q01DX009 (ip), vehicle: Klucel (hydroxypropylcellulose) (HPC)) was 112 % of control, the T/C [10] was 100 % of control and the T/C [11] was 95 % of control.
O=c1[nH]cnc2c(C3OC(CO)C(O)C3O)[nH]nc12 (stereo not drawn) was tested, and the T/C [1] was 91 % of control, the T/C (dose: 20.0 mg/kg/injection, schedule: Q01DX009 (ip), vehicle: saline) was 100 % of control and the T/C (dose: 40.0 mg/kg/injection, schedule: Q01DX009 (ip), vehicle: saline) was 91 % of control.
